Literature values as cited in patent US20110178470A1, “PHARMACEUTICAL COMPOSITIONS COMPRISING BORONIC ACID COMPOUNDS” (DR. REDDY'S LABORATORIES LTD., priority 2008, published 2011).

Conditions: as the monomeric boronic acid; pH range of 2 to 6.5

solubility in water: 3300 to 3800 µg/mL
Compound: CC(C)C[C@H](NC(=O)[C@H](Cc1ccccc1)NC(=O)c1cnccn1)B(O)O [bortezomib, [(1R)-3-methyl-1-[[(2S)-1-oxo-3-phenyl-2-[(pyrazinylcarbonyl)amino]propyl]amino]butyl]boronic acid]
